{"source": "patent US12233077B2", "about": "“Therapeutic treatment of breast cancer based on c-MAF status” (INBIOMOTION S.L., priority 2017, dated 2025)", "key": {"[1]": {"test_system": "breast cancer patients (AZURE trial)", "test": "AZURE trial, zoledronic acid treatment effect according to MAF FISH stratification (Example 2)", "assay_type": "in vivo, human", "details": "for HR, risk of bone metastasis (anytime), zoledronic acid treatment / HR, bone metastatic event (anytime), zoledronic acid treatment: cutoff 2.5", "description": "The MAF FISH assay was produced by Kreatech for Inbiomotion based on Kreatech proprietary FISH technology. The probe set contains two probes: a MAF 16q23 probe plus a D16Z3 probe as control of chromosome 16 centromeric region. The assay was validated using a 16q23/D16Z3 probe (Inbiomotion) and Poseidon Tissue Digestion Kit from Kreatech. The scoring criteria were defined in a fact sheet and as follows: two FISH evaluable results per patient, and the highest value was selected. The scoring algorithm was as follows: 20 cells counted for target and centromere amplification, if the gene count is >2 and ≤3, then 50 cells were counted.\nAn overview of the AZURE clinical trial (Coleman et al N Eng J Med 2011; 365: 1396-1405 and AZURE Current Controlled Trials number, ISRCTN79831382 and ClinicalTrials.gov identifier NCT00072020) study design, whose patients were used to validate MAF, is provided in FIG. 2. MAF was validated in a retrospective analysis of the AZURE trial using patient tumor sample prospectively collected under regulatory compliant conditions. Out of the 3,360 patients recruited, 1,769 donated tumor tissue (52.4%). There were 13 TMAs (tissue micro array) (150 patient samples each) (1,769 patients). There were 4 replicas of each TMA using different tissue cores (6,326 (4× patient)). One TMA had only 1 replica and two TMAs had three replicas. Based on the H&E analysis (hematoxylin and eosin) (FIG. 3) (6,326): 3,978 cores were evaluable (63%) and 2,348 were nonevaluable.\nFor the FISH assay, there were 2,067 FISH evaluable cores (56%). […] 567 patients were nonevaluable by FISH in any of the 4 replicas (32%).\nWith regard to molecular variables, for FISH analysis: MAF copy number: numerical and categorical (+/−cut-off>=2.5) variable; % of nucleic MAF amplified (MAF CN>2):numberical+categorical (cut-off TBD). For the IHC analysis: IHC H-Score: numerical+categorical (cut-off>=200), IHC OD: numerical+categorical (cut-off tBD). The following clinical variables were analyzed: disease-free survival (DFS), invasive disease-free survival (IDFS), overall survival (OS), first recurrence in bone, bone recurrence at any time, time to first DFS event in bone, time to first DFS event not in bone, response to zoledronic acid treatment.\nIn analyzing the MAF FISH prognostic value, the patients from the control and treatment arms were pooled for the initial analysis. Optimized cut-offs for each variable to be analyzed were used when indicated. Death as a competing event was used in time to bone metastasis, anytime. The following clinical variables were analyzed: time to bone metastasis (anytime), time to bone metastasis (as first event), IDFS (including ipsilateral invasive breast tumor recurrence, regional invasive breast cancer recurrence, metastatic disease-breast cancer, death attributable to any cause, including breast cancer, contralateral invasive breast cancer, second primary non-breast invasive cancer), and overall survival.\nThe control and zoledronic acid treatment arms from the AZURE study described in Example 1 were evaluated to determine the effect of zoledronic acid treatment on MAF-stratified patients."}, "[2]": {"test_system": "patients with invasive stage II or III breast cancer (AZURE trial)", "test": "AZURE trial, effect of MAF amplification on treatment outcomes with adjuvant zoledronic acid (Example 3)", "assay_type": "in vivo, human", "description": "3,360 patients from 174 centers worldwide were recruited to the AZURE trial between Sep. 4, 2003, and Feb. 16, 2006. Eligible patients had histologically confirmed invasive stage II or III breast cancer of any subtype, with either pathologically involved axillary lymph node metastasis or a T3 or T4 primary tumor treated with curative intent and complete resection of the primary tumor (or planned resection if patients were being treated with neoadjuvant chemotherapy). Other inclusion criteria were age 18 years or older, Karnofsky performance status score 80 or more, and not being pregnant or breastfeeding. Patients were excluded if they had clinical or imaging evidence of distant metastases, current or recent (<1 year) use of bisphosphonates, or pre-existing bone disease likely to require bone-targeted treatment. All patients gave written informed consent. In the UK, patients also provided voluntary specific consent for use of biological materials (primary tumor and blood samples). Before randomization, patients underwent hematological, renal, hepatic function, and staging imaging tests according to institutional protocols. Those confirmed to be eligible were randomly assigned (1:1) to standard adjuvant systemic treatment alone or with zoledronic acid from a central computer-generated schedule held at the Clinical Trials Research Unit, University of Leeds, Leeds, UK. A minimization process that took into account the number of involved axillary lymph nodes, clinical tumor stage, estrogen receptor status, type and timing of systemic therapy, menopausal status, statin use, and treating center was used.\nPatients received standard systemic therapy with (neo-) adjuvant chemotherapy, endocrine therapy, or both, alone (control group) or with 4 mg zoledronic acid given intravenously every 3-4 weeks for the first six doses, every 3 months for eight doses, and every 6 months for five doses to complete 5 years of treatment (zoledronic acid group). Oral calcium and vitamin D supplements were recommended for all patients in the first 6 months of treatment, and continued thereafter at the discretion of the treating physician. Adjuvant systemic treatments and locoregional radiotherapy were used in accordance with the standard protocols of each participating institution.\nThe follow-up schedule was similar in both study groups, and included clinical assessments, monitoring of adverse events, and hematological, renal, and hepatic function tests. Routine follow-up imaging was not mandated, but investigations were done for clinically suspected recurrence if deemed appropriate by the treating physician. Recurrence was defined by the date on which it was first suspected, to reduce the risk of ascertainment bias. 91% of recurrences were independently validated by either on-site or telephone based monitoring. After treatment with zoledronic acid was completed, patients were followed up annually for disease and safety endpoints.\n5 μm thick slices were cut from each TMA block and oriented to match the TMA map to allow identification of each tissue core. The slices were mounted onto Superfrost plus glass slides (Thermo Fisher Scientific, Waltham, MA, USA) and stained with hematoxylin and eosin to confirm the presence of assessable tumor. MAF amplification was assessed with the validated MAFTEST fluorescence in situ hybridization (FISH) with the MAF/D16Z3 probe (Inbiomotion, Barcelona, Spain). A central laboratory (Targos Molecular Pathology, Kassel, Germany) validated the analytical and diagnostic performance of the assay, established acceptance criteria, included appropriate quality controls for each assay, and performed the analyses masked to treatment assignment. Briefly, TMA sections were rehydrated in ethanol series, washed with water, and pretreated at 98° C. for 15 min. Samples were digested with pepsin in a Poseidon Tissue Digestion Kit (Kreatech, Amsterdam, Netherlands) for 30 min, dehydrated in ethanol series, and dried. […]"}, "[3]": {"details": "zoledronic acid group (420 patients), median follow-up 84·6 months"}}, "data": [{"molecule": "O=P(O)(O)C(O)(Cn1ccnc1)P(=O)(O)O", "note": "[zoledronic acid]", "values": [{"measurement": "HR, risk of bone metastasis (anytime), zoledronic acid treatment", "setting": "[1]; MAF FISH not positive patients, death as competing event, p=0.03", "value": 0.65}, {"measurement": "HR, overall survival outcome, zoledronic acid treatment", "setting": "[1]; MAF negative post menopausal patients, 95% CI 0.31-1.01", "value": 0.56}, {"measurement": "HR, DFS outcome, zoledronic acid treatment", "setting": "[1]; MAF negative post menopausal patients, 95% CI 0.33-0.95", "value": 0.56}, {"measurement": "HR, bone metastatic event (anytime), zoledronic acid treatment", "setting": "[1]; MAF non-positive non-post-menopausal patients, p=0.08", "value": 0.66}, {"measurement": "HR, bone metastatic event (anytime), zoledronic acid treatment", "setting": "[1]; MAF non-positive postmenopausal patients, limited number of events", "value": 0.63}, {"measurement": "HR, bone metastatic event (anytime), zoledronic acid treatment", "setting": "[1]; MAF positive non-post-menopausal patients, p=0.045", "value": 2.44}, {"measurement": "HR, risk of bone metastasis (anytime), zoledronic acid treatment", "setting": "[1]; MAF positive patients, death as competing event, non-significant, p=0.22", "value": 1.54}, {"measurement": "HR, bone metastatic event (anytime), zoledronic acid treatment", "setting": "[1]; MAF positive postmenopausal patients, p=0.26, limited number of events", "value": 0.46}, {"measurement": "HR, risk of bone metastasis at any time", "setting": "[1]; zoledronic acid arm, MAF FISH not positive (<2.3) compared to MAF FISH positive, death as competing event, p=0.01", "value": 0.52}, {"measurement": "HR, time to recurrence (invasive disease)", "setting": "[1]; zoledronic acid treatment arm, by MAF FISH status (positive >=2.2), multivariate analysis, p<0.001", "value": 0.52}, {"measurement": "effect on extraskeletal recurrence", "setting": "[2]; MAF-negative tumors, nonpostmenopausal at start of treatment", "value": "No effect"}, {"measurement": "patients who died", "setting": "[2]; MAF-negative tumors, zoledronic acid group (321 patients)", "value": 18, "unit": "%"}, {"measurement": "number of events, invasive-disease-free survival", "setting": "[2]; MAF-negative, non-postmenopausal zoledronic acid group (216 patients)", "value": "216 (61)"}, {"measurement": "number of events, invasive-disease-free survival", "setting": "[2]; MAF-negative, postmenopausal zoledronic acid group (105 patients)", "value": "105 (29)"}, {"measurement": "patients who died", "setting": "[2]; MAF-positive tumors, non-postmenopausal at start of treatment, zoledronic acid group (66 patients)", "value": 36, "unit": "%"}, {"measurement": "patients who died", "setting": "[2]; MAF-positive tumors, postmenopausal, zoledronic acid group (33 patients)", "value": 30, "unit": "%"}, {"measurement": "patients who died", "setting": "[2]; MAF-positive tumors, zoledronic acid group (99 patients)", "value": 34, "unit": "%"}, {"measurement": "number of events, invasive-disease-free survival", "setting": "[2]; MAF-positive, non-postmenopausal zoledronic acid group (66 patients)", "value": "66 (33)"}, {"measurement": "number of events, invasive-disease-free survival", "setting": "[2]; MAF-positive, postmenopausal zoledronic acid group (33 patients)", "value": "33 (12)"}, {"measurement": "patients with an extraskeletal invasive-disease-free survival event", "setting": "[2]; zoledronic acid group", "value": 98}, {"measurement": "patients who had died", "setting": "[2]; [3]", "value": 91}, {"measurement": "patients with a first event in bone", "setting": "[2]; [3]", "value": 21}, {"measurement": "patients with an invasive-disease-free survival event", "setting": "[2]; [3]", "value": 135}, {"measurement": "number of events, invasive-disease-free survival", "setting": "[2]; zoledronic acid group, <50 years, MAF-negative (142 patients)", "value": 41}, {"measurement": "number of events, invasive-disease-free survival", "setting": "[2]; zoledronic acid group, <50 years, MAF-positive (44 patients)", "value": 23}, {"measurement": "number of events, invasive-disease-free survival", "setting": "[2]; zoledronic acid group, ≥50 years, MAF-negative (179 patients)", "value": 49}, {"measurement": "number of events, invasive-disease-free survival", "setting": "[2]; zoledronic acid group, ≥50 years, MAF-positive (55 patients)", "value": 22}]}]}
